From article PMC10747733, “N-Substituted 2-(Benzenosulfonyl)-1-Carbotioamide Derivatives Exert Antimicrobial and Cytotoxic Effects via Aldehyde Dehydrogenase Pathway: Synthesis, In Silico and In Vitro Studies” (Pharmaceuticals, 2023)
Converted amounts (≈) assume the structure as drawn. “Also recorded” adds a separate entry of the source.

Legend:
in vitro = format: cell-based, sheep; settings: sheep
Experimental: The toxicity of WZ1–WZ4 compounds towards red blood cells was tested using the erythrocyte lysis assay (ELA). Erythrocytes from fresh sheep blood (BioMaxima S.A., Poland) were centrifuged and washed with 0.85% NaCl. Next, 100 μL of a 2% suspension of red blood cells in physiological saline was added to the wells of microtiter plate. The double dilutions of compounds WZ1–WZ4 were prepared in the range of 2000–15.62 μg/mL. Appropriate controls were used to assess the hemolytic potential of tested compounds, i.e., 100% lysis of erythrocytes using 4% Triton X-100 (Pol-Aura, Różnowo, Poland) and 0% lysis in saline solution. Next, all sample plates were incubated (1 h at 37 °C), centrifuged for 10 min to separate unlysed red blood cells, and the supernatant was placed in a new plate. The ELA is a biological test by which the lytic response can be measured spectrophotometrically (at a wavelength of 450 nm) by the amount of hemoglobin released. The hemolysis percentage was calculated according to the following equation:(1) % Hemolysis = A450 of test compound treated sample − A450 of buffer treated sample/A450 of 4% Triton X100 treated samples − A450 of buffer treated sample × 100

ALDH1A1 = ALDH1A1 concentration by ELISA in Du145 cells; format: cell-based, human
Experimental: The effect of compounds WZ1–WZ4 on ALDHA1 levels was investigated (Figure 10). The Du145, HepG2 and 769-P cell lines were treated with the calculated IC25 values for each compound.
Selected cell lines, viz HepG2, Du145 and 769-P, were seeded into 6-well plates and incubated for 24 h after seeding with compounds at a concentration equal to IC25. After a further 24 h or 48 h, cells were detached with trypsin and centrifuged. The resulting cell pellet was resuspended in 0.5 mL PBS. The samples were then sonicated, and protein was determined using the Bradford method (Bio-rad; Hercules, CA, USA). Samples were equilibrated to 10 mg/mL of protein, and ALDH1A1 was determined in the samples prepared in this way. ALDH1A1 determination was performed using an ELISA (SEE824Hu; Cloud Clone Corp., Katy, TX, USA), according to the manufacturer’s protocol.

Gram-positive bacteria = test: Broth microdilution, summary over reference Gram-positive bacteria; format: cell-based; settings: for share of reference Gram-positive strains with mild activity: mild activity: MIC 501–1000 µg/mL; for share of reference Gram-positive strains with mild activity / share of reference Gram-positive strains with no activity / share of reference Gram-positive strains with good activity / share of reference Gram-positive strains with moderate activity: 8 strains; for share of reference Gram-positive strains with no activity: no activity: MIC > 1000 µg/mL; for share of reference Gram-positive strains with good activity: good activity: MIC 26–125 µg/mL; for share of reference Gram-positive strains with moderate activity: moderate activity: MIC 126–500 µg/mL
From the text: (§1) Reference strains of microorganisms that came from American Type Culture Collection (ATCC) (Manassas, VA, USA) were used for this study. The representative Gram-positive bacteria were as follows: Staphylococcus aureus ATCC 25923, Staphylococcus aureus ATCC 29213, Staphylococcus aureus ATCC 43300, Staphylococcus epidermidis ATCC 12228, Enterococcus faecalis ATCC 29212, Micrococcus luteus ATCC 10240, Bacillus subtilis ATCC 6633 and Bacillus cereus ATCC 10876. While, those of Gram-negative bacteria were as follows: Bordetella bronchiseptica ATCC 4617, Escherichia coli ATCC 25922, Klebsiella pneumoniae ATCC 13883, Proteus mirabilis ATCC 12453, Salmonella Typhimurium ATCC 14028 and Pseudomonas aeruginosa ATCC 9027. Moreover, the following fungi belonging to yeasts were used: Candida albicans ATCC 10231, Candida albicans ATCC 2091, Candida parapsilosis ATCC 22019, Candida glabrata ATCC 90030 and Candida krusei ATCC 14243.
(§2) The new compounds WZ1–WZ4 were assayed for both antibacterial and antifungal activity using the broth microdilution method in accordance with the European Committee on Antimicrobial Susceptibility Testing (EUCAST) and Clinical and Laboratory Standards Institute (CLSI) guidelines. The microorganisms were grown at 35 °C for 18–24 h on appropriate media (nutrient agar and Sabouraud for bacteria and fungi, respectively) (BioMaxima S.A., Lublin, Poland). Next, microbial suspensions with an optical density of 0.5 McFarland standard scale (in sterile 0.85% NaCl) were prepared. In turn, the tested compounds were initially diluted at 50 mg/mL in dimethyl sulfoxide (DMSO) and the broth microdilution method was used to assess their minimum inhibitory concentrations (MICs). For these studies, selective broth Mueller-Hinton (MH) (BioMaxima S.A., Lublin, Poland) and RPMI (Roswell Park Memorial Institute) 1640 with MOPS (3-(N-Morpholino)propanesulfonic acid) (Sigma-Aldrich Chemicals, St. Louis, MO, USA) were used for bacteria and fungi, respectively. The antimicrobial effect of compounds WZ1–WZ4 was determined in the concentration range from 2000 to 0.98 µg/mL.
(§3) Then, the microbial suspensions were introduced into each well of the microplate and incubated for 18–24 h at 35 °C. […] The reference drugs ciprofloxacin or vancomycin (against bacteria) and nystatin (against fungi) (Sigma-Aldrich Chemicals, St. Louis, MO, USA) were also used. Next, the values of the minimum bactericidal concentration (MBC) and minimum fungicidal concentration (MFC) of WZ1–WZ4 were assessed. For this purpose, the cultures from each MIC determination well were transferred to a suitable solid medium and incubated under appropriate conditions. The lowest concentrations of compounds without microbial growth were read as MBC or MFC. The studies were performed in triplicate and representative data were gathered.
(§4) In turn, the MBC/MIC or MFC/MIC ratios were used to assess bactericidal/fungicidal (MBC/MIC or MFC/MIC ≤ 4) and bacteriostatic/fungistatic (MBC/MIC or MFC/MIC > 4) effect of these compounds [93].

Candida spp. = test: Broth microdilution, summary over reference Candida spp.; format: cell-based; settings: for MFC: Candida, yeasts; for MFC/MIC: reference yeasts, except WZ4 towards C. parapsilosis
From the text: as §1, §2, §3, §4

[1] = almost all Gram-positive bacteria

| SMILES | hemolysis at 1 h, 15.62 μg/mL (in vitro) | hemolysis at 1 h, 31.25 μg/mL (in vitro) | hemolysis at 1 h, 62.5 μg/mL (in vitro) | hemolysis at 1 h, 125 μg/mL (in vitro) | hemolysis at 1 h, 250 μg/mL (in vitro) | hemolysis at 1 h, 500 μg/mL (in vitro) | hemolysis at 1 h, 1000 μg/mL (in vitro) | hemolysis at 1 h, 2000 μg/mL (in vitro) | ALDH1A1 concentration compared to control (ALDH1A1; compound at IC25, 24 h) | ALDH1A1 concentration compared to control (ALDH1A1; compound at IC25, 48 h) | share of reference Gram-positive strains with mild activity (Gram-positive bacteria) | share of reference Gram-positive strains with no activity (Gram-positive bacteria) | anticandidal bioactivity class (Candida spp.; reference Candida spp.) | MIC (Gram-positive bacteria; [1]) | share of reference Gram-positive strains with good activity (Gram-positive bacteria) | share of reference Gram-positive strains with moderate activity (Gram-positive bacteria) | MBC/MIC ratio (Gram-positive bacteria; most Gram-positive bacteria) | MIC (Candida spp.; C. albicans and C. krusei) | MFC (Candida spp.) | MIC (Candida spp.; reference Candida spp.) | also measured |
| --- | --- | --- | --- | --- | --- | --- | --- | --- | --- | --- | --- | --- | --- | --- | --- | --- | --- | --- | --- | --- | --- |
| CCCCNC(=S)NNS(=O)(=O)c1ccccc1 [WZ2, 2-(Benzenesulfonyl)-N-Butylhydrazine-1-Carbothioamide] | 0% | 0% | 0% | 3.15% | 8.95% | 19.5% | 27.9% | 36.8% | increased | decrease; also recorded: significantly reduced | 62.5% | 37.5% | no anticandidal bioactivity |  |  |  |  |  |  |  | MIC (Gram-positive bacteria; most Gram-positive bacteria): 1000 µg/mL (≈ 3480 µM) |
| CNC(=S)NNS(=O)(=O)c1ccccc1 [WZ4, 2-(Benzenesulfonyl)-N-Methylhydrazine-1-Carbothioamide] | 0% | 0% | 0% | 3.16% | 15.8% | 45.3% | 88.4% | 100% | decrease | decrease; also recorded: significantly reduced | 25% |  |  | 62.5 to 500 µg/mL (≈ 255 to 2040 µM) | 37.5% | 37.5% | 1–4 | 250 to 500 µg/mL (≈ 1020 to 2040 µM) | 500 to 2000 µg/mL (≈ 2040 to 8150 µM) | 125 to 2000 µg/mL (≈ 510 to 8150 µM) | MIC (Gram-positive bacteria; Staphylococcus aureus ATCC 43300, Staphylococcus aureus ATCC 25923 and Micrococcus luteus): 250 to 500 µg/mL (≈ 1020 to 2040 µM); MIC (Gram-positive bacteria; Staphylococcus epidermidis, Bacillus subtilis and Bacillus cereus): 62.5 to 125 µg/mL (≈ 255 to 510 µM); MFC/MIC (Candida spp.): 1–4 |
| O=S(=O)(NNC(=S)NC1CCCCC1)c1ccccc1 [WZ1, 2-(Benzenesulfonyl)-N-Cyclohexylhydrazine-1-Carbothioamide] | 0% | 0% | 0% | 2.11% | 7.89% | 14.2% | 18.4% | 34.7% |  |  |  | 12.5% | no anticandidal bioactivity | 62.5 to 500 µg/mL (≈ 199 to 1600 µM) |  | 87.5% |  |  |  |  | MIC (Gram-positive bacteria; Enterococcus faecalis, Gram-positive bacteria except E. faecalis): 250 to 500 µg/mL (≈ 798 to 1600 µM) |
| CCCCCCNC(=S)NNS(=O)(=O)c1ccccc1 [WZ3, 2-(Benzenesulfonyl)-N-Hexylhydrazine-1-Carbothioamide] | 0% | 0% | 0% | 1.14% | 11.4% | 18.2% | 43.2% | 85.8% |  | decrease; also recorded: significantly reduced |  |  |  | 62.5 to 500 µg/mL (≈ 198 to 1580 µM) | 12.5% | 87.5% | 1–4 | 250 to 500 µg/mL (≈ 792 to 1580 µM) | 500 to 2000 µg/mL (≈ 1580 to 6340 µM) | 125 to 2000 µg/mL (≈ 396 to 6340 µM) | MIC (Gram-positive bacteria; Bacillus subtilis, remaining Gram-positive microorganisms (other than B. subtilis)): 250 to 500 µg/mL (≈ 792 to 1580 µM); MFC/MIC (Candida spp.): 1–4 |
